Source: US20250195521A1 (Revolution Medicines, Inc., priority 2020, published 2025)
Like-named read-outs stand apart in the source and are kept apart here.

Experiments:
AsPC-1 (K-Ras G12D) [1] = test: Potency assay: pERK; format: cell-based, human; settings: Homo sapiens, ASPC1, read-out: pERK EC50
How it was run: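 pERK decrease measured after 4 h compound treatment at 37 °C (10 three-fold dilutions, duplicate wells), by either fixed-cell In-Cell Western with DRAQ5 counterstain or AlphaLISA on lysates. Signal fitted against log concentration with a four-parameter model to give IC50.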

AsPC-1 (K-Ras G12D) [2] = test: CellTiter-Glo cell viability assay, AsPC-1; format: cell-based, human; settings: Homo sapiens, ASPC1, 120 h, read-out: AsPC-1 Cell Viability IC50
How it was run: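 Four-parameter logistic fits were applied to luminescence data normalized against DMSO-treated wells. Readings were taken on day 5 following direct compound addition, after roughly 30 minutes at room temperature.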

KRAS G13D = KRAS G13D (Homo sapiens (Human), UniProt P01116+P62937, G13D); test: Ras-Raf disruption/FRET/MOA assay, KRAS G13D; format: biochemical
From the text: (§1) Disruption of B-Raf Ras-Binding Domain (BRAF^RBD) Interaction with K-Ras by Compounds of the Invention (Also Called a FRET Assay or an MOA Assay)
(§2) Note—The following protocol describes a procedure for monitoring disruption of K-Ras G12C (GMP-PNP) binding to BRAF^RBD by a compound of the invention. This protocol may also be executed substituting other Ras proteins or nucleotides, such as K-Ras G12D and K-Ras G13D.
(§3) The purpose of this biochemical assay was to measure the ability of test compounds to facilitate ternary complex formation between a nucleotide-loaded K-Ras isoform and Cyclophilin A; the resulting ternary complex disrupts binding to a BRAF^RBD construct, inhibiting K-Ras signaling through a RAF effector. Data is reported as IC50 values.
(§4) In assay buffer containing 25 mM HEPES pH 7.3, 0.002% Tween20, 0.1% BSA, 100 mM NaCl and 5 mM MgCl2, tagless Cyclophilin A, His6-K-Ras-GMPPNP, and GST-BRAF^RBD were combined in a 384-well assay plate at final concentrations of 25 μM, 12.5 nM, and 50 nM, respectively. Compound was present in plate wells as a 10-point 3-fold dilution series starting at a final concentration of 30 μM. After incubation at 25° C. for 3 hours, a mixture of anti-His Eu—W1024 and anti-GST allophycocyanin was then added to assay sample wells at final concentrations of 10 nM and 50 nM, respectively, and the reaction incubated for an additional 1.5 hours. […] Compounds that facilitate disruption of a K-Ras: RAF complex were identified as those eliciting a decrease in the TR-FRET ratio relative to DMSO control wells.

KRAS G12S = KRAS G12S (Homo sapiens (Human), UniProt P01116+P62937, G12S); test: Ras-Raf disruption/FRET/MOA assay, KRAS G12S; format: biochemical
From the text: as §1, §2, §3, §4

KRAS G13C = KRAS G13C (Homo sapiens (Human), UniProt P01116+P62937, G13C); test: Ras-Raf disruption/FRET/MOA assay, KRAS G13C; format: biochemical
From the text: as §1, §2, §3, §4

KRAS G12V = KRAS G12V (Homo sapiens (Human), UniProt P01116+P62937, G12V); test: Ras-Raf disruption/FRET/MOA assay, KRAS G12V; format: biochemical
From the text: as §1, §2, §3, §4

KRAS G12D = KRAS G12D (Homo sapiens (Human), UniProt P01116+P62937, G12D); test: Ras-Raf disruption/FRET/MOA assay, KRAS G12D; format: biochemical
From the text: as §1, §2, §3, §4

KRAS WT = KRAS WT (Homo sapiens (Human), UniProt P01116+P62937); test: Ras-Raf disruption/FRET/MOA assay, KRAS WT; format: biochemical
From the text: as §1, §2, §3, §4

KRAS G12C = KRAS G12C (Homo sapiens (Human), UniProt P01116+P62937, G12C); test: Ras-Raf disruption/FRET/MOA assay, KRAS G12C; format: biochemical
From the text: as §1, §2, §3, §4

NRAS G12C = NRAS G12C (Homo sapiens (Human), UniProt P01111+P62937, G12C); test: Ras-Raf disruption/FRET/MOA assay, NRAS G12C; format: biochemical
From the text: as §1, §2, §3, §4

[3] = read-out: KRAS G12C FRET data IC50
[4] = read-out: NRAS G12C FRET data IC50

KRAS G13C, sequence (P01116 other isoform, or with tags, fused parts or gaps G13C): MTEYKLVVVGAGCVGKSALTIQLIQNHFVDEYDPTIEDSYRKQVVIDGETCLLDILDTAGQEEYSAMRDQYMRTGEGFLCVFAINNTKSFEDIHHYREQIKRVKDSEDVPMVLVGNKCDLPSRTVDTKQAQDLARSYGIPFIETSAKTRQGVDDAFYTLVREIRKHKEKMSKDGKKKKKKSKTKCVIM
KRAS G13C, sequence (P62937 whole entry): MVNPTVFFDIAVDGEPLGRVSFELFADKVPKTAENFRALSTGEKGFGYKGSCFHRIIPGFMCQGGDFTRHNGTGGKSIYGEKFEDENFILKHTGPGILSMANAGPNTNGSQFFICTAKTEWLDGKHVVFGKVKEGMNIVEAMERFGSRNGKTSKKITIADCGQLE
KRAS WT, sequence (P01116 other isoform, or with tags, fused parts or gaps): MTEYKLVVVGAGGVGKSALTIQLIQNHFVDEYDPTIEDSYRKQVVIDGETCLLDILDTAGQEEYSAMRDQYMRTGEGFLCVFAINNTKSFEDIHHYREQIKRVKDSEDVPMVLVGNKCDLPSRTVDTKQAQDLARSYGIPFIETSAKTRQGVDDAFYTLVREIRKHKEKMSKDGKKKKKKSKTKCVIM
KRAS WT, sequence (P62937 whole entry): as the sequence (P62937 whole entry) above
NRAS G12C, sequence (P01111 whole entry G12C): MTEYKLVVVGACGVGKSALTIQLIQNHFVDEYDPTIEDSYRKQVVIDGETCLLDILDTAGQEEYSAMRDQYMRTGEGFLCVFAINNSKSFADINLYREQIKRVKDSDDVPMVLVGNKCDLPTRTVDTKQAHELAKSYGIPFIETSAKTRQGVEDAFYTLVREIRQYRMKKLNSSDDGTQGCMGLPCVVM
NRAS G12C, sequence (P62937 whole entry): as the sequence (P62937 whole entry) above
KRAS G12S, sequence (P01116 other isoform, or with tags, fused parts or gaps G12S): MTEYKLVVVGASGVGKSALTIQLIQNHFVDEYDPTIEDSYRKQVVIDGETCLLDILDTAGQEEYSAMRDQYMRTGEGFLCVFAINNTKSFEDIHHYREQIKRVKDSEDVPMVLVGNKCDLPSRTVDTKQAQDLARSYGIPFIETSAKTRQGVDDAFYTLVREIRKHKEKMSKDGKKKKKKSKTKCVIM
KRAS G12S, sequence (P62937 whole entry): as the sequence (P62937 whole entry) above
KRAS G13D, sequence (P01116 other isoform, or with tags, fused parts or gaps G13D): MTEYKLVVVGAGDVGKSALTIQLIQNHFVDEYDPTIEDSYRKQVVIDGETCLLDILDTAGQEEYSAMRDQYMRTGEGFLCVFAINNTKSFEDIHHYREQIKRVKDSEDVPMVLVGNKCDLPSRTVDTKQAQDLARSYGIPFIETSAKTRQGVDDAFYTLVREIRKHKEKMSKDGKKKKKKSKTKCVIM
KRAS G13D, sequence (P62937 whole entry, the tested form may be a part): as the sequence (P62937 whole entry) above
KRAS G12C, sequence (P01116-2 other isoform, or with tags, fused parts or gaps G12C): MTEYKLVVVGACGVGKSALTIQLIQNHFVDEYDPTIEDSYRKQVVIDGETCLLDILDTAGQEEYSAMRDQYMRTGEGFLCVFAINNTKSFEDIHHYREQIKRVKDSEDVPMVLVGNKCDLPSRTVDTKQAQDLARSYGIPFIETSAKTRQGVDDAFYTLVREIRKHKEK
KRAS G12C, sequence (P62937 whole entry): as the sequence (P62937 whole entry) above
KRAS G12V, sequence (P01116 other isoform, or with tags, fused parts or gaps G12V): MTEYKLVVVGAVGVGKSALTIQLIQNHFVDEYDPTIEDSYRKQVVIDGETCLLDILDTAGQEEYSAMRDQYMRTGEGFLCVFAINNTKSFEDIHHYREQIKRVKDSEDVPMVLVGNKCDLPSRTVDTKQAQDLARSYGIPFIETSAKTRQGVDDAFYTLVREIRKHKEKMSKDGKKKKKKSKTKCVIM
KRAS G12V, sequence (P62937 whole entry): as the sequence (P62937 whole entry) above
KRAS G12D, sequence (P01116 other isoform, or with tags, fused parts or gaps G12D): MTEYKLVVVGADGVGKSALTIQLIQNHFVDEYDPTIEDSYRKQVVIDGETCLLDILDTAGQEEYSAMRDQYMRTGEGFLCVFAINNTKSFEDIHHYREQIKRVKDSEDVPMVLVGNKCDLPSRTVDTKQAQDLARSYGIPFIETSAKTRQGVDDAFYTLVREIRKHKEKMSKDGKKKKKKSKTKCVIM
KRAS G12D, sequence (P62937 whole entry): as the sequence (P62937 whole entry) above

Structure (SMILES)	EC50 (AsPC-1 (K-Ras G12D) [1]) [µM]	IC50 (AsPC-1 (K-Ras G12D) [2]) [µM]	IC50 (KRAS G13D) [nM]	IC50 (KRAS G12S) [nM]	IC50 (KRAS G13C) [nM]	IC50 (KRAS G12V) [nM]	IC50 (KRAS G12D) [nM]	IC50 (KRAS WT) [nM]	IC50 (KRAS G12C) [nM]	IC50 (NRAS G12C) [nM]	IC50 (KRAS G13D; read-out: KRAS G13D FRET IC50) [nM]	IC50 (KRAS G12S; read-out: KRAS G12S FRET IC50) [nM]	IC50 (KRAS G13C; read-out: KRAS G13C FRET IC50) [nM]	IC50 (KRAS G12V; read-out: KRAS G12V FRET IC50) [nM]	IC50 (KRAS G12D; read-out: KRAS G12D FRET IC50) [nM]	IC50 (KRAS WT; read-out: KRAS WT FRET IC50) [nM]	IC50 (KRAS G12C; [3]) [nM]	IC50 (NRAS G12C; [4]) [nM]	IC50 (AsPC-1 (K-Ras G12D) [2]; K-Ras G12D, 5-day treatment) [µM]
CCn1c(-c2cnccc2COC)c2c3cc(ccc31)-c1cc(O)cc(c1)C[C@H](NC(=O)[C@H](C(C)C)N(C)C(=O)CN(C)C(=O)[C@H]1N[C@H]1C(=O)OC)C(=O)N1CCC[C@H](N1)C(=O)OCC(C)(C)C2 [Example 51]	< 5	> 10	100 to 1000	100 to 1000	10 to 100	100 to 1000	100 to 1000	100 to 1000	10 to 100	100 to 1000	–	–	–	–	–	–	–	–	–
CCn1c(-c2cnccc2COC)c2c3cc(ccc31)-c1cccc(c1)C[C@H](NC(=O)[C@H](C(C)C)N(C)C(=O)CCN=C=NCc1c(OC)cccc1OC)C(=O)N1CCC[C@H](N1)C(=O)OCC(C)(C)C2 [Example 75]	–	–	–	–	–	–	–	–	–	–	> 10000	> 10000	> 10000	1000 to 10000	> 10000	> 10000	100 to 1000	100 to 1000	–
CCn1c(-c2cnccc2COC)c2c3cc(ccc31)-c1cccc(c1)C[C@H](NC(=O)[C@H](C(C)C)N1CC[C@@H](CN=C=NCCOC)C1)C(=O)N1CCC[C@H](N1)C(=O)OCC(C)(C)C2 [Example 80]	–	–	–	–	–	–	–	–	–	–	> 10000	1000 to 10000	1000 to 10000	1000 to 10000	1000 to 10000	1000 to 10000	100 to 1000	100 to 1000	–
CCn1c(-c2cnccc2COC)c2c3cc(ccc31)-c1cccc(c1)C[C@H](NC(=O)[C@H](C(C)C)N1CC[C@H](CN=C=Nc3ccc(OC)cc3)C1)C(=O)N1CCC[C@H](N1)C(=O)OCC(C)(C)C2 [Example 81]	–	–	–	–	–	–	–	–	–	–	> 10000	> 10000	> 10000	1000 to 10000	> 10000	> 10000	100 to 1000	1000 to 10000	–
CCn1c(-c2cnccc2COC)c2c3cc(ccc31)-c1cc(O)cc(c1)C[C@H](NC(=O)[C@H](C(C)C)N(C)C(=O)CN(C)C(=O)[C@H]1N[C@H]1c1ccc(OC)cc1)C(=O)N1CCC[C@H](N1)C(=O)OCC(C)(C)C2 [Example 93]	< 5	> 10	100 to 1000	10 to 100	10 to 100	10 to 100	100 to 1000	10 to 100	10 to 100	10 to 100	–	–	–	–	–	–	–	–	–
CCn1c(-c2cnccc2COC)c2c3cc(ccc31)-c1cc(O)cc(c1)C[C@H](NC(=O)[C@H](C(C)C)N(C)C(=O)CN(C)C(=O)[C@H]1N[C@@H]1c1ccc(OC)cc1)C(=O)N1CCC[C@H](N1)C(=O)OCC(C)(C)C2 [Example 97]	< 5	1 to 10	100 to 1000	10 to 100	10 to 100	10 to 100	100 to 1000	10 to 100	10 to 100	10 to 100	–	–	–	–	–	–	–	–	–
CCn1c(-c2cnccc2COC)c2c3cc(ccc31)-c1cc(O)cc(c1)C[C@H](NC(=O)[C@H](C(C)C)N(C)C(=O)CN1C(=O)[C@H]3N[C@H]3C1=O)C(=O)N1CCC[C@H](N1)C(=O)OCC(C)(C)C2 [Example 98]	–	–	–	–	–	–	–	–	–	–	1000 to 10000	1000 to 10000	100 to 1000	1000 to 10000	1000 to 10000	100 to 1000	100 to 1000	1000 to 10000	–
CCn1c(-c2cnccc2COC)c2c3cc(ccc31)-c1cc(O)cc(c1)C[C@H](NC(=O)[C@@H](CN(C)C(=O)[C@H]1CN1)C(C)C)C(=O)N1CCC[C@H](N1)C(=O)OCC(C)(C)C2 [Example 99]	–	–	–	–	–	–	–	–	–	–	> 10000	> 10000	> 10000	1000 to 10000	> 10000	> 10000	1000 to 10000	> 10000	–
CCn1c(-c2cnccc2COC)c2c3cc(ccc31)-c1cc(O)cc(c1)C[C@H](NC(=O)[C@H](C(C)C)N(C)C(=O)CN(C)C(=O)[C@H]1N[C@H]1C1CC1)C(=O)N1CCC[C@H](N1)C(=O)OCC(C)(C)C2 [Example 104]	< 5	1 to 10	100 to 1000	10 to 100	10 to 100	100 to 1000	100 to 1000	100 to 1000	10 to 100	10 to 100	–	–	–	–	–	–	–	–	–
CCn1c(-c2cccnc2[C@H](C)OC)c2c3cc(ccc31)-c1cc(O)cc(c1)C[C@H](NC(=O)[C@H](C(C)C)N1CCC3(CC(C(=O)[C@H]4CN4)C3)C1=O)C(=O)N1CCC[C@H](N1)C(=O)OCC(C)(C)C2 (stereo partly drawn) [Example 115]	–	–	–	–	–	–	–	–	–	–	10 to 100	100 to 1000	10 to 100	100 to 1000	100 to 1000	10 to 100	< 10	< 10	> 10
CCn1c(-c2cnccc2COC)c2c3cc(ccc31)-c1cc(O)cc(c1)C[C@H](NC(=O)[C@H](C(C)C)N(C)C(=O)CCNC1=NCCO1)C(=O)N1CCC[C@H](N1)C(=O)OCC(C)(C)C2 [Example 120]	–	–	–	–	–	–	–	–	–	–	10 to 100	100 to 1000	10 to 100	100 to 1000	100 to 1000	10 to 100	100 to 1000	100 to 1000	–
CCn1c(-c2cccnc2[C@H](C)OC)c2c3cc(ccc31)-c1cccc(c1)C[C@H](NC(=O)[C@H](C(C)C)N1CC[C@@H](CN=C=NCCOC)C1)C(=O)N1CCC[C@H](N1)C(=O)OCC(C)(C)C2 [Example 121]	–	–	–	–	–	–	–	–	–	–	> 10000	1000 to 10000	100 to 1000	1000 to 10000	1000 to 10000	100 to 1000	100 to 1000	100 to 1000	–
